Measurements from PubChem BioAssay AID248 (DTP/NCI, 2004).
Inconclusive results and toxic doses are left out. Rule as the data show it: active = T/C of 150% or more; inactive = T/C below 125%.

System: L1210 leukemia ip in BDF1 mice, survival T/C
Assay: NCI In Vivo Anticancer Drug Screen. Data for tumor model L1210 Leukemia (intraperitoneal) in B6D2F1 (BDF1) mice
Conditions: endpoint: mean survival time, higher = longer survival
In short: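 In this screen, tumor-bearing mice given compound are compared to those given vehicle, and their survival values are reported as a treated-to-control quotient.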

[1] = dose: 100.0 mg/kg/injection, schedule: Q01DX001 (ip), vehicle: carboxymethylcellulose (CMC)
[2] = dose: 200.0 mg/kg/injection, schedule: Q01DX001 (ip), vehicle: carboxymethylcellulose (CMC)
[3] = dose: 100.0 mg/kg/injection, schedule: Q04DX003 (ip), vehicle: saline with Tween-80
[4] = dose: 200.0 mg/kg/injection, schedule: Q04DX003 (ip), vehicle: saline with Tween-80
[5] = dose: 400.0 mg/kg/injection, schedule: Q04DX003 (ip), vehicle: saline with Tween-80
[6] = dose: 100.0 mg/kg/injection, schedule: Q04DX003 (ip), vehicle: Klucel (hydroxypropylcellulose) (HPC)
[7] = dose: 200.0 mg/kg/injection, schedule: Q04DX003 (ip), vehicle: Klucel (hydroxypropylcellulose) (HPC)
[8] = dose: 100.0 mg/kg/injection, schedule: Q01DX009 (ip), vehicle: saline
[9] = dose: 100.0 mg/kg/injection, schedule: Q04DX003 (ip), vehicle: saline
[10] = dose: 200.0 mg/kg/injection, schedule: Q01DX009 (ip), vehicle: saline
[11] = dose: 200.0 mg/kg/injection, schedule: Q04DX003 (ip), vehicle: saline
[12] = dose: 100.0 mg/kg/injection, schedule: Q01DX001 (ip), vehicle: saline
[13] = dose: 200.0 mg/kg/injection, schedule: Q01DX001 (ip), vehicle: saline
[14] = dose: 400.0 mg/kg/injection, schedule: Q01DX001 (ip), vehicle: saline
[15] = dose: 100.0 mg/kg/injection, schedule: Q01DX009 (ip), vehicle: Klucel (hydroxypropylcellulose) (HPC)
[16] = dose: 200.0 mg/kg/injection, schedule: Q01DX009 (ip), vehicle: Klucel (hydroxypropylcellulose) (HPC)
[17] = dose: 400.0 mg/kg/injection, schedule: Q01DX009 (ip), vehicle: Klucel (hydroxypropylcellulose) (HPC)

Measured: T/C

Nc1nc(N)c(-c2ccc(Cl)cc2)c(C=O)n1
inactive: [1] 108 % of control | [2] 87 % of control | dose: 400.0 mg/kg/injection, schedule: Q01DX001 (ip), vehicle: carboxymethylcellulose (CMC) 108 % of control

NC(=O)CCNCCSC(=O)c1ccccc1
inactive: [3] 102 % of control | [4] 100 % of control | [5] 96 % of control

CCOC(=O)NCS(=O)(=O)c1ccccc1-c1ccccc1
inactive: [6] 93 % of control | [7] 104 % of control

O=C(Nc1cccc(C2=NCCN2)c1)c1ccc(C(=O)Nc2cccc(C3=NCCN3)c2)cc1
inactive: dose: 2.5 mg/kg/injection, schedule: Q01DX Z (ip), vehicle: saline 95 % of control | dose: 5.0 mg/kg/injection, schedule: Q01DX Z (ip), vehicle: saline 111 % of control

CC(=O)CCCc1ccccc1
inactive: [8] 92 % of control | [9] 100 % of control | [10] 98 % of control | [11] 100 % of control | dose: 400.0 mg/kg/injection, schedule: Q01DX009 (ip), vehicle: saline 104 % of control

CC(=O)Nc1ccc(Cc2ccc3[nH]c(C)cc(=O)c3c2)cc1
inactive: [12] 109 % of control | [13] 98 % of control | [14] 93 % of control

O=C(O)c1cc2cc(Cl)ccc2oc1=O
inactive: [1] 92 % of control | [2] 92 % of control

Cc1ccc(S(=O)(=O)NC(CCl)=NCc2ccccc2)cc1
inactive: dose: 100.0 mg/kg/injection, schedule: Q04DX002 (ip), vehicle: Klucel (hydroxypropylcellulose) (HPC) 96 % of control | dose: 200.0 mg/kg/injection, schedule: Q04DX002 (ip), vehicle: Klucel (hydroxypropylcellulose) (HPC) 100 % of control | dose: 400.0 mg/kg/injection, schedule: Q04DX002 (ip), vehicle: Klucel (hydroxypropylcellulose) (HPC) 114 % of control

O=[N+]([O-])c1ccc(N=Cc2ccccc2)c(O)c1
inactive: [12] 93 % of control | [13] 98 % of control | [14] 98 % of control

ClCCCC#Cc1ccccc1
inactive: dose: 50.0 mg/kg/injection, schedule: Q01DX009 (ip), vehicle: Klucel (hydroxypropylcellulose) (HPC) 101 % of control | dose: 100.0 mg/kg/injection, schedule: Q01DX001 (ip), vehicle: Klucel (hydroxypropylcellulose) (HPC) 90 % of control | [15] 101 % of control | dose: 200.0 mg/kg/injection, schedule: Q01DX001 (ip), vehicle: Klucel (hydroxypropylcellulose) (HPC) 98 % of control | [16] 110 % of control

COc1cc(N)ccn1
inactive: dose: 100.0 mg/kg/injection, schedule: Q04DX003 (ip), vehicle: acetone 95 % of control | dose: 200.0 mg/kg/injection, schedule: Q04DX003 (ip), vehicle: acetone 94 % of control | dose: 400.0 mg/kg/injection, schedule: Q04DX003 (ip), vehicle: acetone 94 % of control

Nc1ncc(CCCOc2ccccc2)c(=O)[nH]1
inactive: [3] 96 % of control | [4] 98 % of control | [5] 93 % of control

CN(C)CC/C=C1\c2ccccc2Sc2ccc(Cl)cc21
inactive: dose: 0.04 mg/kg/injection, schedule: Q03HX024 (ip), vehicle: saline 107 % of control | dose: 0.09 mg/kg/injection, schedule: Q03HX024 (ip), vehicle: saline 105 % of control | dose: 0.18 mg/kg/injection, schedule: Q03HX024 (ip), vehicle: saline 102 % of control | dose: 0.36 mg/kg/injection, schedule: Q01DX001 (ip), vehicle: Klucel (hydroxypropylcellulose) (HPC) 102 % of control | dose: 0.37 mg/kg/injection, schedule: Q03HX024 (ip), vehicle: saline 105 % of control | dose: 0.73 mg/kg/injection, schedule: Q01DX001 (ip), vehicle: Klucel (hydroxypropylcellulose) (HPC) 97 % of control | dose: 0.74 mg/kg/injection, schedule: Q03HX024 (ip), vehicle: saline 107 % of control | dose: 1.46 mg/kg/injection, schedule: Q01DX001 (ip), vehicle: Klucel (hydroxypropylcellulose) (HPC) 108 % of control | dose: 1.49 mg/kg/injection, schedule: Q03HX024 (ip), vehicle: Klucel (hydroxypropylcellulose) (HPC) 103 % of control | dose: 2.92 mg/kg/injection, schedule: Q01DX001 (ip), vehicle: Klucel (hydroxypropylcellulose) (HPC) 105 % of control | dose: 3.8 mg/kg/injection, schedule: Q01DX001 (ip), vehicle: Klucel (hydroxypropylcellulose) (HPC) 107 % of control | dose: 3.9 mg/kg/injection, schedule: Q01DX009 (ip), vehicle: Klucel (hydroxypropylcellulose) (HPC) 105 % of control | dose: 5.6 mg/kg/injection, schedule: Q01DX001 (ip), vehicle: saline 101 % of control | dose: 5.85 mg/kg/injection, schedule: Q01DX001 (ip), vehicle: Klucel (hydroxypropylcellulose) (HPC) 105 % of control | dose: 7.5 mg/kg/injection, schedule: Q01DX001 (ip), vehicle: Klucel (hydroxypropylcellulose) (HPC) 104 % of control | dose: 7.81 mg/kg/injection, schedule: Q01DX009 (ip), vehicle: Klucel (hydroxypropylcellulose) (HPC) 92 % of control | dose: 11.25 mg/kg/injection, schedule: Q01DX001 (ip), vehicle: saline 104 % of control | dose: 15.0 mg/kg/injection, schedule: Q01DX001 (ip), vehicle: Klucel (hydroxypropylcellulose) (HPC) 107 % of control | dose: 15.62 mg/kg/injection, schedule: Q01DX009 (ip), vehicle: Klucel (hydroxypropylcellulose) (HPC) 110 % of control | dose: 22.5 mg/kg/injection, schedule: Q01DX001 (ip), vehicle: saline 101 % of control | dose: 23.43 mg/kg/injection, schedule: Q01DX001 (ip), vehicle: Klucel (hydroxypropylcellulose) (HPC) 121 % of control | dose: 30.0 mg/kg/injection, schedule: Q01DX001 (ip), vehicle: Klucel (hydroxypropylcellulose) (HPC) 112 % of control | dose: 31.25 mg/kg/injection, schedule: Q01DX009 (ip), vehicle: Klucel (hydroxypropylcellulose) (HPC) 108 % of control | dose: 31.25 mg/kg/injection, schedule: Q04DX003 (ip), vehicle: Klucel (hydroxypropylcellulose) (HPC) 107 % of control

O=[N+]([O-])c1ccc(NN=C(CO)CO)c([N+](=O)[O-])c1
inactive: dose: 100.0 mg/kg/injection, schedule: Q01DX005 (ip), vehicle: saline 98 % of control | [9] 101 % of control | dose: 200.0 mg/kg/injection, schedule: Q01DX005 (ip), vehicle: saline 93 % of control | [11] 100 % of control | dose: 400.0 mg/kg/injection, schedule: Q01DX005 (ip), vehicle: saline 86 % of control | dose: 400.0 mg/kg/injection, schedule: Q04DX003 (ip), vehicle: saline 100 % of control

CCCCOCCOP(=O)(OCCOCCCC)OCCOCCCC
inactive: [6] 98 % of control | [7] 98 % of control | dose: 400.0 mg/kg/injection, schedule: Q04DX003 (ip), vehicle: Klucel (hydroxypropylcellulose) (HPC) 101 % of control

O=C(CCCCCCCCC(=O)Nc1cccc(C(F)(F)F)c1)Nc1cccc(C(F)(F)F)c1
inactive: [15] 101 % of control | [16] 92 % of control | [17] 95 % of control

COc1ccc([N+](=O)[O-])cc1NC(=O)c1cccc(Cl)c1
inactive: [15] 114 % of control | [16] 98 % of control | [17] 102 % of control

CNC1CCCCC1O (centres undefined)
inactive: dose: 50.0 mg/kg/injection, schedule: Q01DX009 (ip), vehicle: saline 97 % of control | [8] 91 % of control | [10] 94 % of control
